Results published in patent US9592234B2, “Methods and compositions for stimulating neurogenesis and inhibiting neuronal degeneration using isothiazolopyrimidinones” (Neuronascent, Inc., priority 2007, dated 2017).

Columns and labels:
[1] = test system: Human neurons; test: inhibition of neurodegeneration by hydrogen peroxide (Alamar Blue respiration); format: cell-based; settings: hydrogen peroxide 50 uM for up to 6 hrs, FIG. 1
Experimental: Dysfunctional neurons were initiated using any of the above agents or using hydrogen peroxide at 1-100 μM concentration. Using a dye that measures metabolic activity of the cells, such as MTT or ALAMARBLUE®, we determined the reduction of respiratory capacity of the cells, which indicated neuron dysfunction. The ability of neurogenic agents to inhibit hydrogen peroxide-induced reduction in cellular respiration was used as a measure of inhibition of neuronal dysfunction, a potential step that lead to degeneration.
Certain compounds were further analyzed to determine their ability to inhibit neurodegeneration by hydrogen peroxide. Human neurons are treated with hydrogen peroxide (50 uM) for up to 6 hrs and then neuronal loss is measured using Alamar Blue respiration.

[2] = test system: human neuronal progenitors cells; test: in vitro neurogenesis test; format: cell-based; settings: MAP-2 staining on day 11; differentiation media; vehicle 0.2% DMSO in DMEM/F12
Experimental: The in vitro neurogenesis test was performed using human neuronal progenitors cells. By way of background, the human neuronal progenitor cells can be cultured in media and have the potential to produce mature functional neurons. The neurogenesis factor in the culture media can promote the number of the progenitor cells which differentiate into neurons. Indeed, it is a widely accepted in vitro model to test a chemical's neurogenetic property.
Cells were obtained as human neuronal progenitors from a commercial source and were grown for up to three passages or at any time differentiated to potentially produce mature functional neurons in culture. Following two passages to expand the cells, progenitors were seeded into multi-well microplates and the media were changed to differentiation media (minus serum and mitogen). Within 2 hrs of this media change, a vehicle, positive control or test compound were added to each well. Also, they were added with every further media change (50% volume change every other day). Control wells contained cells and vehicle (0.2% DMSO in DMEM/F12). […]
The cells were stained using MAP-2, a neuronal marker, on day 11. Then, each test compound was assessed for the ability to promote an increase in neuron number and compared with the positive control, leukemia inhibitory factor (LIF).

SMILES | loss of respiration (neuronal loss) when added along with hydrogen peroxide [1] | Effects of compounds on the increase in the neuron numbers compared with the vehicle control, % of Control [2] [%]
CCN1CCCC1Cn1cnc2c(-c3ccc(F)cc3)nsc2c1=O (stereo not shown) [NNI-B, 6-((1-ethylpyrrolidin-2-yl)methyl)-3-(4-fluorophenyl)isothiazolo[4,5-d]pyrimidin-7(6H)-one] | less loss of respiration | 
COc1ccc(-c2nsc3c(=O)n(CCCN4CCOCC4)cnc23)cc1 [3-(4-Methoxyphenyl)-6-[3-(4-morpholinyl)propyl]-isothiazolo[4,5-d]pyrimidin-7-(6H)-one] |  | 115
CCN1CCCC1Cn1cnc2c(-c3ccc(OC)cc3)nsc2c1=O (stereo not shown) [3-(4-Methoxyphenyl)-6-[(1-ethylpyrrolidin-2-yl)methyl]-isothiazolo[4,5-d]pyrimidin-7(6H)-one] |  | 107
CCN1CCCC1Cn1cnc2c(-c3ccc(OC)cc3)nsc2c1=O (stereo not shown) [NNI-A, 6-((1-ethylpyrrolidin-2-yl)methyl)-3-(4-methoxyphenyl)isothiazolo[4,5-d]pyrimidin-7(6H)-one] | less loss of respiration | 
